Measured values published in patent US20180015455A1, “ADDITIVE CHANNELS” (Emulate Inc., priority 2016, published 2018).
“Also recorded” adds a separate entry of the source. Positions of bridges follow the written chain, without caps; N, C: chain ends. Non-standard residues stand in square brackets, D forms with d. Residues, ends and D or L forms follow the SMILES beside them. hArg = N=C(N)NCCCC[C@H](N)C(=O)O; Mpa = O=C(O)CCS

Key:
platelets [1] = test: Vessel-On-Chip blood perfusion: platelet coverage/aggregation by fluorescence imaging; format: cell-based, human
Protocol: (§1) Briefly, human blood was drawn in citrate buffer and used within 4 hours. Platelets were stained using fluorescently labeled non-blocking antibodies for the platelet surface marker CD41 and low dosages of fluorescent fibrinogen were added in order to visualize fibrin deposition. Blood was re-calcified in order to re-establish the full coagulation potential, then introduced in the biomimetic vessel-on-chip from the main inlet (embodiments of inlets shown in FIG. 18A-1, FIG. 18A-2 and FIG. 19C). The outlet of the chip was connected to a pulling syringe pump with a system of tubing and connectors made of medical grade silicon that excludes any metal components or potential causes of platelet activation (FIG. 5A).
Platelets were labeled with human CD41-PE antibody (10 μL/ml, Invitrogen) directly added to the blood and incubated at room temperature for 5 minutes.
A medical grade plastic reservoir was mounted on the chip, then 800 μl of the blood sample was pipetted into the reservoir. The chip was perfused with the blood by withdrawing it at a rate of 60 μl/minute using a syringe pump. The citrated blood was re-calcified 2 minutes after the beginning of each experiment by adding 100 μl/ml of a solution containing 100 mM calcium chloride and 75 mM magnesium chloride to the blood to permit calcium- and magnesium-dependent platelet function and coagulation.
(§2) Chips perfused with blood samples were immediately imaged via fluorescence microscopy (Olympus IX83, 10× objective UPLFLN10X2, Orca-Flash4.0 CMOS Camera). Each chamber was inspected along its entire length and 5 images (about 0.25 cm) were captured from the central area of the chamber. Image processing and quantification was performed with an automatic macro compiled in ImageJ and numerical values corresponding to platelet coverage or fibrin florescence were collected and statistically analyzed in Graphpad Prism V7.
(§3) A percentage of signal coverage (or Platelet coverage) was computed from the binary image as the ratio of bright pixels to the total number of pixels in the image. Image processing and quantification was performed with an automatic macro compiled in ImageJ in order to ensure unbiased signal measurements. Numerical values corresponding to platelet coverage or fibrin fluorescence (signal intensity) were collected and statistically analyzed in Graphpad Prism V7.

[2] = system: thrombin anti-thrombin complex (TAT); test: Thrombin anti-thrombin (TAT) ELISA in chip effluent plasma; format: cell-based, human
Protocol: Thrombin converts fibrinogen into fibrin during clot formation, and anti-thrombin plays a role in maintaining homeostasis by inhibiting the effect of thrombin. Formation of TAT in the microdevice confirms that local and intrinsic generation of thrombin, a potent platelet agonist, occurs in the model and that counter regulatory mechanisms for coagulation are retained. Thus, blood sampled from the Vessel-On-Chip was analyzed for thrombin anti-thrombin complex (TAT), an accepted clinical biomarker for procoagulation^48,49. TAT refers to a factor released upon activation of the coagulation cascade and one of the biomarkers associated with thrombotic events occurring in patients affected with deep vein thrombosis (DVT) or Systemic lupus erythematosus (SLE)^45,46. An enzyme-linked immunosorbent assay (ELISA) was used to quantify the thrombin anti-thrombin complex (TAT).
Thrombin Anti-Thrombin (TAT) levels were analyzed in plasma from blood flowing out of the chip device by removing a sample from the outflow port. Thus TAT levels were evaluated in sample effluents collected from the outflow port of the chip using the Human TAT ELISA Kit (Siemens Healthineers) according to the user manual.
Blood sampled from the Vessel-On-Chip outflow port was analyzed for thrombin anti-thrombin complex (TAT), a factor released upon activation of the coagulation cascade and one of the biomarkers associated with thrombotic events occurring in patients affected with deep vein thrombosis (DVT) or SLE^45,46. TAT is an accepted clinical biomarker for procoagulation^48,49. An enzyme-linked immunosorbent assay (ELISA) was used to quantify the thrombin anti-thrombin complex (TAT).

fibrin = test: Vessel-On-Chip blood perfusion: fibrin deposition (fluorescent fibrinogen); format: cell-based, human
Protocol: as §1
When analyzing the formation of fibrin, […] of fluorescently labeled fibrinogen (Alexa 488, Invitrogen) was also added to the blood. While fluorescent fibrinogen was barely detected as a diffused fluorescence, fibrin deposition on inflamed cells and sparse clots was easily distinguished since fibrin formed filamentous structures produce a signal intensity that is clearly observed above a background threshold.
as §2, with “Each chamber was inspected along its entire length and 5 images (about 0.25 cm) were captured from the central area of the chamber.” left out
as §3

ICAM1 = ICAM1 immunostaining of endothelium; format: cell-based, human; settings: TNF-α stimulated endothelium
FcγRIIa = molecular target: T1, FcγRIIa (Homo sapiens, UniProt P12318); test: Vessel-On-Chip hu5C8-mediated thrombosis, FcγRIIa dependence (platelet coverage, fibrin deposition, TAT); format: cell-based; settings: FcγRIIa blocked with IV.3 (1 μg/ml) or non-FcγRIIa binding IgG2σ variant, with sCD40L 10 ng/ml
T1 construct: Blood from several human donors were aliquoted into groups for the following treatments; host or cells: platelets in citrated human whole blood from donors, perfused over HUVEC-lined chips
T1 sequence (P12318 34-317): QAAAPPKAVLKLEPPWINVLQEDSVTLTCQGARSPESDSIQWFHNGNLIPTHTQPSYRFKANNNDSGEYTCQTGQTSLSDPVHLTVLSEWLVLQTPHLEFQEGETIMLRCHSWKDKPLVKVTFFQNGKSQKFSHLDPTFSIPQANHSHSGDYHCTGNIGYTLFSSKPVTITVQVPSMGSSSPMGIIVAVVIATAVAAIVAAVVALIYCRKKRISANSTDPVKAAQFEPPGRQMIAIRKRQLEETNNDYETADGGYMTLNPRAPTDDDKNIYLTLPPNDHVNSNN
Text: Recent studies conducted on humanized mice expressing the human Fcγ receptors (FCGR2A) have shown that this receptor plays a role in thrombosis leading to the IC-mediated toxicity^12,16,21. […] In order to investigate if the ICs-induced thrombosis that we observed in our vessel-on-chip system also relies on an Fc-mediated mechanism, we used two different tool molecules: IgG2a and IV.3 (FIG. 25A). The IgG2σ variant of hu5C8 has an engineered Fc region^48 that eliminates affinity for the FcγRIIa, while the monoclonal antibody IV.3 is a blocking antibody binding to FcγRIIa. Briefly, equimolar concentrations of IgG2σ or hu5c8 were incubated with 10 ng/ml of sCD40L for 20 minutes to form ICIgG2σ or IC5c8, respectively.
Some of the blood samples were treated with IV.3 (1 μg/ml) for 10 minutes to block the FcγRIIa, and then incubated for 20 more minutes with ICs. Finally, blood alone (control) or blood incubated with IC5c8, ICIgG2σ or IV.3 was perfused through the biomimetic microfluidic-on-chip for about 10 minutes. We tested 15 donors and all the tested conditions described above were tested in duplicates and analyzed as percentage of platelet coverage based on fluorescence microscopic imaging (FIG. 25B). Five of the donors were also tested for fibrin deposition (FIG. 25C). Finally, effluents plasma obtained from a total of 7 of the donors (including the 5 mentioned before) were used to assess TAT via ELISA (FIG. 25D). […]
Blood from several human donors were aliquoted into groups for the following treatments: controls (PBS), sCD40L, combined hu5C8/sCD40L, combined hu5C8 (IgG2σ)/sCD40L combined, and combined hu5C8/sCD40L/IV.3. Each condition was tested with a minimum of 3 donors to a maximum of 15 donors, and all conditions were tested in duplicates and analyzed for platelet coverage (FIG. 25B), fibrin deposition (FIG. 25C), or increased formation of TAT measured in the eluates (FIG. 25D). […]

platelets [3] = test: Platelet activation quality control by p-selectin expression; format: cell-based, human; settings: control blood upon activation by ADP
Protocol: To test for a thrombic event, blood was collected from 4 donors, the as blood alone or blood treated with hu5C8 alone (240 μg/mL), sCD40L (10 ng/ml) alone or with combined hu5C8/sCD40L was incubated for 20 minutes at room temperature. Each sample was further incubated for 5 minutes with fluorescent labels for platelets and fibrinogen. As a standard quality control, the control blood was tested for platelet activation using p-selection expression. We confirmed that platelets in control blood were not activated but upon activation by ADP, over 90% of platelet was positive for p-selectin.

[4] = hu5C8: lupus nephritis clinical study; IDEC-131: Crohn's disease clinical trial; cited from earlier work
[5] = pro-thrombotic stimulus vs blood alone, TNF-α 50 ng/ml 6 hours on endothelium, sCollagen 10 μg/ml in blood
[6] = Eptifibatide 2 ug/ml, endothelium inflamed with TNF-α, n=4

Molecule: TNF-α
- platelet coverage (platelets [1]; [5]): significantly increased
- levels of TAT in outflow samples ([2]; after treatment, FIG. 22B): significantly increased; also recorded: elevated levels
- fibrin deposition / fibrin signal intensity (fibrin; [5]): significantly increased
- ICAM1 expression in the endothelium compared to control (ICAM1): increased expression; also recorded: higher

Molecule: hu5C8 (IgG2σ): IgG2σ variant of hu5C8 with an engineered Fc region that eliminates affinity for FcγRIIa
- hu5C8-mediated thrombosis on-chip (all endpoints) (FcγRIIa): did not show signs of thrombosis
- hu5C8-mediated thrombosis on-chip (all endpoints) (FcγRIIa; listed as IgG2σ): suppressed
- hu5C8-mediated thrombosis on-chip (all endpoints) (FcγRIIa; listed as hu5C8-IgG2σ): not detected

Molecule: Nc1ncnc2c1ncn2[C@@H]1O[C@H](COP(=O)(O)OP(=O)(O)O)[C@@H](O)[C@H]1O [ADP]
- platelets positive for p-selectin (platelets [3]): over 90%

Molecule: hu5C8: humanized monoclonal IgG1 antibody against CD40L (anti-CD154)
- treatment-related effects compared to untreated blood (platelets [1]; hu5C8 alone 240 μg/mL or sCD40L alone 10 ng/ml, 4 donors, 60 μl/minute): no significant treatment-related effects
- incidence of thromboembolic events [4]: 2/18

Molecule: N=C(N)NCCCC[C@@H]1NC(=O)CCSSC[C@@H](C(N)=O)NC(=O)[C@@H]2CCCN2C(=O)[C@H](Cc2c[nH]c3ccccc23)NC(=O)[C@H](CC(=O)O)NC(=O)CNC1=O [Eptifibatide] ([Mpa][hArg]GDWPC-NH2; disulfide 1-7)
- inhibition of platelet aggregation (platelets [1]; [6]): significantly inhibited
- inhibitory effect on platelet aggregation and fibrin clot formation (platelets [1]; Eptifibatide 2 ug/ml, following treatment with sCollagen, n=4): comparatively modest
- platelet adhesion (image analysis of multiple experiments) (platelets [1]; Eptifibatide 2 ug/ml, n=4): completely inhibited
- effect on platelet coverage and fibrin deposition in stimulated, pro-thrombotic conditions (platelets [1]; Eptifibatide added, TNF-α or sCollagen, n=4): suppressed; also recorded: inhibited
- effect on TAT increment associated with TNF-α-induced inflammation ([2]; Eptifibatide treatment): did not inhibit
- effect on TAT increment due to sCollagen treatment ([2]; Eptifibatide treatment): entirely suppressed
- inhibition of fibrin clot formation (fibrin; [6]): significantly inhibited
- fibrin signal remaining with Eptifibatide (fibrin; Eptifibatide 2 ug/ml, samples treated with TNF-α): still detectable
